Experimental findings from patent US5861263A, “Preparation of preserved entamoeba histolytica antigens without enzymatic inhibitors and their use in immunological methods” (Universidad Autonoma De Nuevo Leon, priority 1992, dated 1999) are described below.

The test system of this assay is proteases of Entamoeba histolytica crude extract. The assay can be described thus: Inhibition of crude amebic extract proteolytic activity (hide powder azure). It counts as biochemical, Entamoeba histolytica HK-9. The settings on record: 4 mM iodoacetamide. The procedure: The second method was carried out according to Rinderknecht et al., Clinica Chimica Acta., 21: 197-203 (1968). The activity corresponding to 6 million trophozoites was tested. Crude amebic extracts, IC:M and IC:MC were used. The samples were resuspended in 1.5 ml 0.05M Tris-HCL pH 7.5 containing 0.5% Triton X-100, and incubated for one hour at 4° C. and centrifuged at 11,000×g for 15 minutes. One ml. of the supernatant was added to 1 ml Tris-HCl containing 5 mg hide powder azure and 100 μl .2M cysteine. The samples were incubated at 37° C. for 1 hour and at the end of which the reaction was stopped by putting the tubes in an ice water bath. They were cold-centrifuged for 5 minutes at 450×g. The absorbency of the supernatants were determined at a wavelength of 600 nm. The former treatment was also done with samples that were incubated in the presence of SDS 2% or 2-ME 5% or 4 mM iodoacetamide. The positive control was taken as the activity obtained with 0.23 mg papain, which was activated with 0.7 mM 2-ME in Tris-HCl 0.05M at pH 8.0 at 4° C. for 10 minutes and then at 37° C. for 15 minutes with frequent stirring. Reaction mixtures without extracts were used as the negative control.

On to `NC(=O)CI` [iodoacetamide], for which the “inhibition of the activity of the crude extract” value was “approximately 70%”.
